Data taken from patent US12295951B2, “Compounds for use in a method of treating or preventing neurological and/or psychiatric disorders” (The Beckley Foundation, priority 2019, dated 2025).

Key:
Wistar Rats = assay: Novel object preference test in rats; assay type: in vivo, rat; details: for novel object preference: tested days after administration
Protocol: The effects of the test compound on cognitive functions in rodents, in particular on memory and learning capacity, were investigated using a novel object preference test (sometimes called “novel object recognition task”) according to the experimental design depicted in FIG. 1A. More specifically, the novel object preference test was carried out as follows:
Wistar Rats (outbred albino rats; Janvier Labs) sorted in different age groups, i.e. young (about 2 months), adult (about 9 months) and old (about 12-18 months), were administered with a saline solution (sodium chloride; 0.9% in water) or an aqueous solution of the test compound (LSD) by intraperitoneal injection (dose: 0.13 mg/kg).
Before the injection the animals were housed with other animals, and after the injection of the saline or test compound the animals were housed individually. For ten hours following the administration, the animals were video-recorded and stayed alone during the acute effects of the test compound (or saline). Then, the animals were allowed to recover for a period of 3 or 9 days.
After recovery, the animals were individually placed in an experiment arena (45×45×45 cm) once a day for 10 minutes over a period of 3 days (acclimatization session). The experiment arena as used herein typically includes two 3D printed bases located on the arena's floor 10 cm apart from each other, which are intended for mounting and fixing the test objects. However, said bases are empty during the acclimatization session.
Then, the 3D printed bases were mounted with the same number (i.e. 2) and type of objects (identical LEGO™ pieces each having 12 edges and 12 vertices). The animals were individually placed in the experiment arena and trained for 7 minutes (training session). At the onset of the training session, the animals were individually placed facing the same wall of the arena, with their backs to the objects.
The animals were removed from the arena and allowed to rest for 30 minutes. In the meantime, one of the objects was replaced by a new object having the same dimensions (height and base) as the previous object but a different shape (LEGO™ piece, 14 edges and 14 vertices). The animals were individually placed in the experiment arena for 3 minutes, and their preference for the novel object was evaluated by determining the time spent by the respective animals to explore the novel object (test session; FIG. 1B). At the onset of the test, the animals were individually placed facing the same wall of the arena, with their backs to the objects in a similar manner as during the training session.

Old animals (rats) = assay: Enriched environment test (LSD plus cognitive training) with novel object preference in old rats; assay type: in vivo, rat; details: 0.13 mg/kg for 1 day or 3 consecutive days, then enriched environment 6 days (3 h per day)
Protocol: The potential of the test compound combined with a cognitive training to rescue cognitive functions (called “enriched environment”) was evaluated in old animals according to the experimental design depicted in FIG. 3A. More specifically, the enriched environment test was carried out as follows:
Old animal (about 12-18 months) were administered with saline (control group) or 0.13 mg/kg of test compound (LSD) for 1 day or 3 consecutive days, followed by exposure to an enriched environment for 6 consecutive days (3 hours each day). The enriched environment used herein typically consists of card boxes with 8 different rooms, wherein it is possible to find a variety of objects such as PVC tubes, toilet paper cardboard tubes or wood objects so as to stimulate the exploratory behavior. The animals were allowed to explore the enriched environment freely in groups of 3 to 5 animals. The effects of the test compound followed by the enriched environment were analyzed using one-way ANOVA, followed by Tukey HSD. The statistical analyses were performed using open source programming language R (version 3.6.0). The Mann-Whitney U test was used to compare the performance of old animals exposed to the enriched environment to that of old animals treated with saline and unexposed to the enriched environment.

healthy human subjects = assay: Two-dimensional visuospatial location (memory) task in humans; assay type: in vivo; details: single oral dose 50 μg (one subject 67.5 μg), final recall about 24 h after learning
Protocol: The effects of the test compound (LSD) on cognitive functions in humans—e.g. memory, learning capacity—were investigated by means of a two-dimensional (2D) visuospatial location task in accordance with the experimental design depicted in FIG. 4A. Specifically, the visuospatial location task was carried out as follows:
Thirteen healthy human subjects learned the locations of 15 card pairs taking the test compound (LSD) or placebo in a two-run cross-over open-label design separated by two weeks. Seven subjects received 50 μg of test compound (orally) in the first run and placebo in the second run of the test. Six subjects received placebo in the first run and 50 μg of test compound (orally) in the second run of the test, except for one subject who received 67.5 μg of test compound in the second run. […]
For the two experimental runs, two parallel versions (versions A and B, respectively) of the task (matrix), each showing different pictures (card pairs) at different locations, were used. […] About 24 hours after the learning session, final recall of the memory task was evaluated in a single recall run (recall task). […] The percentage of correctly recalled card locations at final recall relative to the number of correct card locations during the last immediate recall run at learning was determined as the memory performance. […]

[1] = tested on: brain-derived neurotrophic factor (BDNF); assay: BDNF blood serum levels in healthy volunteers (ELISA); assay type: in vivo, human; details: for BDNF AUC levels compared to placebo / Peak BDNF levels: serum; for BDNF AUC levels compared to placebo: 0-6 h
Protocol: The present double-blind placebo-controlled, within-subjects study aimed to investigate whether low doses (0, 5, 10, and 20 mcg) of LSD affect brain-derived neurotrophic factor (BDNF) blood levels in healthy volunteers. Blood samples were collected every two hours over a six-hour period, and BDNF levels were determined afterwards in blood serum.
Twenty-four recreational psychedelic users were included in this study. Prior to inclusion, participants underwent medical screening including standard blood chemistry, hematology and urinalysis. Inclusion criteria were written informed consent; age 18-40 years; previous experience with a psychedelic drug, but not within the past three months; proficient knowledge of the English language; good physical health; free from psychotropic medication; BMI between 18-28 kg/m^2. Exclusion criteria were history of drug abuse or addiction as assessed using the DSM-IV criteria; history of psychiatric and neurological disorders; previous experience with serious side effects to psychedelic drugs (anxiety or panic attacks); cardiovascular abnormalities; hypertension; psychotic disorder in first-degree relatives; tobacco smoking (>20 cigarettes/day; excessive alcohol (>20 alcoholic consumptions/week); pregnancy or lactation.
LSD doses used were 5, 10, and 20 mcg LSD base. LSD doses were dissolved in ethanol (96% Vol) resulting in a 1 mL volume and the placebo solution consisted of 1 mL of ethanol only. Test days were scheduled with a minimum of five days in between doses. A test day started at 9:00 AM with a screen for the presence of drugs of abuse in urine (THC/opiates/cocaine/amphetamines/methamphetamines), and alcohol in breath. Women were submitted to a urine pregnancy test. When tests were negative, a venous catheter was placed to draw blood and LSD or placebo was administered orally at 10:00 AM. The study was conducted according to the code of ethics on human experimentation established by the declaration of Helsinki (1964) and the World Medical Association (2013).
Blood samples were taken at −0.5 h, +2 h, +4 h and +6 h relative to drug administration; samples were centrifuged, and serum was transferred into a clean tube and frozen subsequently at −20° C. until analysis. BDNF determination was assessed using an ELISA kit (Biosensis Mature BDNF Rapid ELISA kit: human, mouse, rat; Thebarton, Australia) as described by Akinomoto et al. in Behavioural Brain Research 2019, 359, 342-352.
Therefore, only complete within-subjects (WS) cases entered analyses, using the statistical program SPSS (version 25.0). Non-parametric bootstrapped paired-samples t-tests with trapezoidal calculated AUC's as dependent variable were used for 5 mcg (N=10), 10 mcg (N=9), and 20 mcg (N=8), and corresponding placebo. Furthermore, LSD-placebo contrasts were examined using BDNF serum levels at 0 h, +2 h, +4 h and +6 h after dose administration using non-parametric bootstrapped paired samples t-tests. Lastly, to examine time effects per dose, non-parametric bootstrapped repeated measures ANOVA (0 h, +2 h, +4 h, and +6 h) was used, with subsequent non-parametric bootstrapped paired samples t-tests.

With CCN(CC)C(=O)[C@@H]1C=C2c3cccc4[nH]cc(c34)C[C@H]2N(C)C1 [LSD, (D)-lysergic acid diethylamide] the novel object preference (Wistar Rats; adult rats (about 9 months), 0.13 mg/kg i.p., saline baseline about 40%) was “about 60%”, the “novel object preference (effect vs saline)” value (Wistar Rats; adult rats, FIG. 2) was “significantly increased” and the “novel object preference (effect vs saline)” value (Wistar Rats; old rats (about 12-18 months), 0.13 mg/kg i.p.) was “not significant”. The novel object preference (Wistar Rats; young rats (about 2 months), 0.13 mg/kg i.p., saline baseline about 60%) was “about 80%”, the “novel object preference (effect vs saline)” value (Wistar Rats; young rats, FIG. 2) was “significantly increased” and the “cognitive functions / novel object preference vs control group” value (Old animals (rats)) was “significant enhancement”. For the same molecule, the “cognitive functions / novel object preference vs control group” value (Old animals (rats); listed as test compound) was “significant increase”, the “performance in the 2D visuospatial location task vs placebo” value (healthy human subjects) was “significantly improved” and the “performance in the 2D visuospatial location task vs placebo” value (healthy human subjects; listed as test compound) was “significantly increased”. For the same molecule, the “BDNF AUC levels compared to placebo” value ([1]; 5 mcg LSD oral, Z=−2.29, p=0.02) was “significantly increased”, the “Peak BDNF levels” value ([1]; 5 mcg LSD, peak at four hours after administration) was 8.95 ng/mL and the “BDNF AUC levels compared to placebo” value ([1]; 10 mcg LSD oral, Z=−2.67, p<0.01) was “significantly increased”. For the same molecule, the “Peak BDNF levels” value ([1]; 10 mcg LSD, peak at six hours after administration) was 8.28 ng/mL, the “BDNF AUC levels compared to placebo” value ([1]; 20 mcg LSD oral, Z=−2.52, p<0.01) was “significantly increased” and the “BDNF levels compared to placebo” value ([1]; +4 h after 5 mcg LSD, Z=−2.80, p<0.01) was “higher”. For the same molecule, the “BDNF levels compared to placebo” value ([1]; +4 h after 10 mcg LSD, Z=−1.95, p=0.05) was “higher”, the “BDNF levels compared to placebo” value ([1]; +6 h after 5 mcg LSD, Z=−2.29, p<0.01) was “higher” and the “BDNF levels compared to placebo” value ([1]; +6 h after 20 mcg LSD, Z=−2.52, p=0.01) was “higher”.
